The series has as its system rat mammary adenocarcinoma cells (ATCC 13762, Mat B cells). Description: MR imaging on a rat tumor model (tumor enhancement). In kind it is in vivo. On the procedure:
Imaging was done on a rat tumor model. Specifically, rat mammary adenocarcinoma cells (ATCC 13762, Mat B cells) were implanted in Fisher 344 female rats ([…] in 0.5 ml phosphate buffered saline). After 7-9 days, tumors were about 10 mm in diameter and the imaging was done at that point. Imaging was performed using a GE CSI scanner at 2T with a 33 cm bore. A birdcage quadrature coil was used for transmission and receiving. T1 weighted images were obtained (TR 250 ms, TE 18 MS, NEX 16). Rats were imaged prior to injection of contrast agent. […] The rats were then imaged immediately after injection and then at 24 hours.

As for `O=C([O-])CN(CCN(CC(=O)[O-])CC(=O)O)CCN(CC(=O)[O-])CC(=O)O.[Gd+3]` [Gd-DTPA], the tumor enhancement (rat tumor model, standard dose of 0.1 mmol Gd/kG) was determined as 70%. For the same compound, the “wash out of tumors” value (rat, in vivo) is given as “rapidly wash out of tumors”.
